Structures are written as SMILES. Peptide text beside a SMILES is read from it.

7 molecules from patent publication US20250382332A1, “NOVEL ALPHA-FACTOR BASED PEPTIDES WITH ANTIFUNGAL ACTIVITY” (INVAIO SCIENCES, INC., priority 2024, published 2025) can be followed below.

The test deals with Botrytis cinerea (B05.10). In words: Resazurin antifungal assay of 180 alpha-factor peptide variants towards Botrytis (Example 2). It counts as cell-based. Particulars: % inhibition of fungal growth, Botrytis conidia, resazurin; for Inhibition at 50 μM: peptide 50 μM; for Inhibition at 100 μM: peptide 100 μM. Summed up: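 B. cinerea B05.10 conidia (5000/well) were exposed to peptides at 100, 50, 20, 15 and 10 μM final for 24 h at 20° C. Resazurin was then added and fluorescence read at 570/620 nm. Percent growth inhibition was calculated against conidia-only wells, with four technical replicates.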
Background: Alamar Blue is a resazurin reagent that responds to reducing activity.

`CSCC[C@H](NC(=O)[C@H](Cc1c[nH]cn1)NC(=O)[C@@H]1CCCN1)C(=O)N[C@H](C(=O)N[C@@H](CCCNC(=N)N)C(=O)N[C@@H](CC(C)C)C(=O)N[C@@H](CCCCN)C(=O)N1CCC[C@H]1C(=O)NCC(=O)N[C@@H](CCC(N)=O)C(=O)N1CCC[C@H]1C(=O)N[C@@H](CCSC)C(=O)N[C@@H](Cc1ccc(O)cc1)C(=O)O)C(C)C` [compound 132] (H-PHMVRLKPGQPMY-OH; N-terminus and C-terminus assumed): the Inhibition (as a rule, the drop in the measured response relative to a control, in per cent) at 50 μM is reported as less than 90% and the “Inhibition at 100 μM” value is 94.13%.

For `CC[C@H](C)[C@H](NC(=O)[C@H](CC(C)C)NC(=O)[C@H](CCC(N)=O)NC(=O)CNC(=O)[C@H](Cc1c[nH]c2ccccc12)NC(=O)CNC(=O)[C@@H](N)CCCCN)C(=O)N1CCC[C@H]1C(=O)NCC(=O)N[C@@H](CCC(=O)O)C(=O)N1CCC[C@H]1C(=O)N[C@@H](CCSC)C(=O)N[C@@H](Cc1ccc(O)cc1)C(=O)O` [compound 133] (H-KGWGQLIPGEPMY-OH; N-terminus and C-terminus assumed), the “Inhibition at 50 μM” value was less than 90% and the “Inhibition at 100 μM” value is on record as less than 90%.

For `CSCC[C@H](NC(=O)[C@@H]1CCCN1C(=O)[C@H](CCC(N)=O)NC(=O)CNC(=O)[C@@H]1CCCN1C(=O)[C@H](CCCCN)NC(=O)[C@H](CC(C)C)NC(=O)[C@H](CCCCN)NC(=O)[C@H](CC(C)C)NC(=O)[C@H](CC(=O)O)NC(=O)CNC(=O)[C@@H](N)Cc1c[nH]c2ccccc12)C(=O)N[C@@H](Cc1ccc(O)cc1)C(=O)O` [compound 134] (H-WGDLKLKPGQPMY-OH; N-terminus and C-terminus assumed), the “Inhibition at 50 μM” value was less than 90% and the “Inhibition at 100 μM” value is less than 90%.

On to `CSCC[C@H](NC(=O)[C@@H]1CCCN1C(=O)[C@H](CCC(=O)O)NC(=O)CNC(=O)[C@H](CCCNC(=N)N)NC(=O)[C@H](CCC(N)=O)NC(=O)[C@H](CC(C)C)NC(=O)[C@H](CCC(N)=O)NC(=O)CNC(=O)[C@H](Cc1c[nH]c2ccccc12)NC(=O)[C@H](Cc1c[nH]cn1)NC(=O)[C@@H](N)Cc1c[nH]c2ccccc12)C(=O)N[C@@H](Cc1ccc(O)cc1)C(=O)O` [compound 135] (H-WHWGQLQRGEPMY-OH; N-terminus and C-terminus assumed), for which the “Inhibition at 50 μM” value is less than 90% and the “Inhibition at 100 μM” value is less than 90%.

As to `CSCC[C@H](NC(=O)[C@@H]1CCCN1C(=O)[C@H](CCC(=O)O)NC(=O)CNC(=O)[C@@H]1CCCN1C(=O)[C@H](CCCCN)NC(=O)[C@H](CC(C)C)NC(=O)[C@H](CCCCN)NC(=O)[C@H](CC(C)C)NC(=O)[C@H](Cc1c[nH]c2ccccc12)NC(=O)[C@H](Cc1c[nH]cn1)NC(=O)[C@@H]1CCCN1)C(=O)N[C@@H](Cc1ccc(O)cc1)C(=O)O` [compound 136] (H-PHWLKLKPGEPMY-OH; N-terminus and C-terminus assumed), the “Inhibition at 50 μM” value was less than 90% and the “Inhibition at 100 μM” value is given as less than 90%.

As to `CSCC[C@H](NC(=O)[C@H](Cc1c[nH]cn1)NC(=O)[C@@H](N)Cc1c[nH]c2ccccc12)C(=O)NCC(=O)N[C@@H](CCC(N)=O)C(=O)N[C@@H](CC(C)C)C(=O)N[C@@H](CCCCN)C(=O)N1CCC[C@H]1C(=O)NCC(=O)N[C@@H](CCC(=O)O)C(=O)N1CCC[C@H]1C(=O)N[C@@H](CCSC)C(=O)N[C@@H](Cc1ccc(O)cc1)C(=O)O` [compound 137] (H-WHMGQLKPGEPMY-OH; N-terminus and C-terminus assumed), the “Inhibition at 50 μM” value is given as less than 90% and the “Inhibition at 100 μM” value was less than 90%.

In the case of `CSCC[C@H](NC(=O)[C@H](CCC(N)=O)NC(=O)[C@@H](N)Cc1c[nH]c2ccccc12)C(=O)N[C@@H](CC(C)C)C(=O)N[C@@H](CCCCN)C(=O)N[C@@H](CC(C)C)C(=O)N[C@@H](CCCCN)C(=O)N[C@@H](Cc1ccc(O)cc1)C(=O)NCC(=O)N[C@@H](CCC(N)=O)C(=O)N1CCC[C@H]1C(=O)N[C@@H](CCSC)C(=O)N[C@@H](Cc1ccc(O)cc1)C(=O)O` [compound 138] (H-WQMLKLKYGQPMY-OH; N-terminus and C-terminus assumed), the “Inhibition at 50 μM” value is recorded as less than 90% and the “Inhibition at 100 μM” value was less than 90%.
